According to ChEMBL document CHEMBL1157802, “5-Functionalized indazoles as glucocorticoid receptor agonists” (Bioorg Med Chem Lett, 2010):
One block for each compound: values may come before it.

Legend:
[1] = target: T1, Muscarinic acetylcholine receptor M2 (Homo sapiens) (UniProt P08172); experiment: Inhibition of muscarinic M2 receptor at 1 uM
T1 sequence (whole entry): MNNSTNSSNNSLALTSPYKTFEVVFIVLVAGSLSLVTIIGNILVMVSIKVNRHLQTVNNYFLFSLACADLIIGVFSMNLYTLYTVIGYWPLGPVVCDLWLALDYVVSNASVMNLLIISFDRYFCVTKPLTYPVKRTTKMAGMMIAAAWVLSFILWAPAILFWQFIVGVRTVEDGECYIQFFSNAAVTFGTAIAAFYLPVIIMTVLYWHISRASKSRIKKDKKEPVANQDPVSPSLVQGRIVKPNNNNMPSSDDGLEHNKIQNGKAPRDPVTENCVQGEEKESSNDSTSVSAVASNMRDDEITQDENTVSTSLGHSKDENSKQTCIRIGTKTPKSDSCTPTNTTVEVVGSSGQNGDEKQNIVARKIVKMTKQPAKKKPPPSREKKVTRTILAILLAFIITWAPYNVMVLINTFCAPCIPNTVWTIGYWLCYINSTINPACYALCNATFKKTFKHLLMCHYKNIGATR

[2] = target: Beta-2 adrenergic receptor (Homo sapiens) (UniProt P07550); experiment: Inhibition of adrenergic beta2 receptor at 1 uM
Sequence of Beta-2 adrenergic receptor (Homo sapiens) (P07550 whole entry, looked up): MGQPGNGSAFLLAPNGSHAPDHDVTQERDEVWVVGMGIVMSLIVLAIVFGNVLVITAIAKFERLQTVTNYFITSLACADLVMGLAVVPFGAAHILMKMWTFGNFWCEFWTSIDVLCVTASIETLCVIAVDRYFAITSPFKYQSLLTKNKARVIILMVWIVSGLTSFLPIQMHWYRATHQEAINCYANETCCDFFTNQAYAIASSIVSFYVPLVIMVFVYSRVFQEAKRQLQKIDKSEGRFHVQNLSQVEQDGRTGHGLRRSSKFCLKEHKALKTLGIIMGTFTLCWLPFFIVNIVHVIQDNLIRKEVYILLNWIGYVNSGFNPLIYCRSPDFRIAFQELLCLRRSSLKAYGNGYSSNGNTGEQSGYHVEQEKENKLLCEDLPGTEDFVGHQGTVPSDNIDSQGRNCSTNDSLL

[3] = target: T2, Alpha-1A adrenergic receptor (Homo sapiens) (UniProt P35348); experiment: Inhibition of adrenergic alpha1A receptor at 1 uM
T2 sequence (whole entry): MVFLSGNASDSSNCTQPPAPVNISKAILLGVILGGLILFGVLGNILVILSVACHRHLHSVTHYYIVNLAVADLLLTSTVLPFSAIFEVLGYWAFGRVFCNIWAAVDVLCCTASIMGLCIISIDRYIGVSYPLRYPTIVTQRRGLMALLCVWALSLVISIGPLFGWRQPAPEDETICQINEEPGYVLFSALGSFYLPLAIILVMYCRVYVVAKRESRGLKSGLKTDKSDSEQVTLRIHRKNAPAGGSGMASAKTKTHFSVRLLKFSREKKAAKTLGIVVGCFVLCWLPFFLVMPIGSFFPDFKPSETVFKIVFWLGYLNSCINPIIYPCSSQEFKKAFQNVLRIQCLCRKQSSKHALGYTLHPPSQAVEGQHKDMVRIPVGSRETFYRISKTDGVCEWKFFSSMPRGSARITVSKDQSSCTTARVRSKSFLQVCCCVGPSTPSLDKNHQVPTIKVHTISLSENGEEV

[4] = Inhibition of central benzodiazepine receptor at 1 uM
[5] = Inhibition of NMDA receptor at 1 uM
[6] = Inhibition of nicotinic acetylcholine receptor at 1 uM
[7] = target: Prostaglandin E2 receptor EP4 subtype (Homo sapiens) (UniProt P35408); experiment: Inhibition of prostanoid EP4 receptor at 1 uM
Sequence of Prostaglandin E2 receptor EP4 subtype (Homo sapiens) (P35408 whole entry): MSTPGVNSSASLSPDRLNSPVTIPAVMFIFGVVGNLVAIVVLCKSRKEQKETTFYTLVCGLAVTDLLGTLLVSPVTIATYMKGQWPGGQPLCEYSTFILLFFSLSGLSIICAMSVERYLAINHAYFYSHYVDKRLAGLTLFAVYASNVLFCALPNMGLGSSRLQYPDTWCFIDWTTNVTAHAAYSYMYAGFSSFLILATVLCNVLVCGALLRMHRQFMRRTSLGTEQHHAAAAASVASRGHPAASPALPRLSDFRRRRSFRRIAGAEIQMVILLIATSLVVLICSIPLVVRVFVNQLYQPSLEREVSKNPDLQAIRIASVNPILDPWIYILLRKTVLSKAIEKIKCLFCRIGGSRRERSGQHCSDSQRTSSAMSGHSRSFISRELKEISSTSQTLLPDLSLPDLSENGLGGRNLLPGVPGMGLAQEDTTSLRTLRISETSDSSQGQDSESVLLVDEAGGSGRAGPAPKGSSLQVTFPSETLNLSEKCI

[8] = target: T3, Alpha-2A adrenergic receptor (Homo sapiens) (UniProt P08913); experiment: Inhibition of adrenergic alpha2A receptor at 1 uM
T3 sequence (whole entry): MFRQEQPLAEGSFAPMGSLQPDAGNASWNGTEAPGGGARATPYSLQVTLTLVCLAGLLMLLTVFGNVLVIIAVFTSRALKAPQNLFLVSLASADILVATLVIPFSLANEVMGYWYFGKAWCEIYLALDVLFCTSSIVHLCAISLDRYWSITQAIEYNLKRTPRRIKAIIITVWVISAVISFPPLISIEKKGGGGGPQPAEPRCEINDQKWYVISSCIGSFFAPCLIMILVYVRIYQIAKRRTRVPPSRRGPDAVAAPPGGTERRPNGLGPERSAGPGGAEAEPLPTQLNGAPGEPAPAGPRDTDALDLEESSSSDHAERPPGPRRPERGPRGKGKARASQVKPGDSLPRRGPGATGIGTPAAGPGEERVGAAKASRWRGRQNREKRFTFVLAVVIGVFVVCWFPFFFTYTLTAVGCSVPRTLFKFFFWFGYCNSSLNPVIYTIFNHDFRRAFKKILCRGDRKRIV

[9] = Inhibition of nicotinic bungarotoxin-sensitive acetylcholine receptor at 1 uM
[10] = target: Mu-type opioid receptor (Homo sapiens) (UniProt P35372); experiment: Inhibition of mu opioid receptor at 1 uM
Sequence of Mu-type opioid receptor (Homo sapiens) (P35372 whole entry): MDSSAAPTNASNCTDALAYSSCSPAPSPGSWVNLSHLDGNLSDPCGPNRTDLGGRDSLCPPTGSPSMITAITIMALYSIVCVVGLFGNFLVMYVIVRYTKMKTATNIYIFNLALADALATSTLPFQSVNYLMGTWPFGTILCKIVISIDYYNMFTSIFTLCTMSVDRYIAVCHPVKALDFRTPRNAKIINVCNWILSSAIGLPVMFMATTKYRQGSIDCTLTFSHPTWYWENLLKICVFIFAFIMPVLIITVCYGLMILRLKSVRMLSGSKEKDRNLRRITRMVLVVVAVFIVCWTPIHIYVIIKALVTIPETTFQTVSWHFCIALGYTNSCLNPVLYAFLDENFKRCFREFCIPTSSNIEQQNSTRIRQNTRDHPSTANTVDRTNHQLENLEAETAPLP

[11] = Inhibition of central imidazoline I2 receptor at 1 uM
[12] = target: Muscarinic acetylcholine receptor M3 (Homo sapiens) (UniProt P20309); experiment: Inhibition of muscarinic M3 receptor at 1 uM
Sequence of Muscarinic acetylcholine receptor M3 (Homo sapiens) (P20309 whole entry, looked up): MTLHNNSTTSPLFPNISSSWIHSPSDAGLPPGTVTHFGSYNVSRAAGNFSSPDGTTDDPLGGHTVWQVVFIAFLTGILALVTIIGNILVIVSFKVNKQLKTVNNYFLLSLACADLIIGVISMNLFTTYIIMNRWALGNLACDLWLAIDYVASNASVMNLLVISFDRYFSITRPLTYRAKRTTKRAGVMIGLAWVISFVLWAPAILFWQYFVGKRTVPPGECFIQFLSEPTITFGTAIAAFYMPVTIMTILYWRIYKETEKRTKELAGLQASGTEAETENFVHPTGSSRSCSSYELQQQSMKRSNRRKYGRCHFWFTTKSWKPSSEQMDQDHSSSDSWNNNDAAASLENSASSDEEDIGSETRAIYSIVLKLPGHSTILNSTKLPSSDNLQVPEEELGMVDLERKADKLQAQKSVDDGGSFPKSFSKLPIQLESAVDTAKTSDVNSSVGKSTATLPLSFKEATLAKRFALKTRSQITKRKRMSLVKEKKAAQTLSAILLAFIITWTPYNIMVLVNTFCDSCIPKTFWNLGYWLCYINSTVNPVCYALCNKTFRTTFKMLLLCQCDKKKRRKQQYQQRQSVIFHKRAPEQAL

[13] = Inhibition of phorbol ester site of PKC at 1 uM
[14] = Inhibition of GABAA receptor agonist site at 1 uM; assay type: functional
[15] = target: D(1A) dopamine receptor (Homo sapiens) (UniProt P21728); experiment: Inhibition of dopamine D1 receptor at 1 uM
Sequence of D(1A) dopamine receptor (Homo sapiens) (P21728 whole entry): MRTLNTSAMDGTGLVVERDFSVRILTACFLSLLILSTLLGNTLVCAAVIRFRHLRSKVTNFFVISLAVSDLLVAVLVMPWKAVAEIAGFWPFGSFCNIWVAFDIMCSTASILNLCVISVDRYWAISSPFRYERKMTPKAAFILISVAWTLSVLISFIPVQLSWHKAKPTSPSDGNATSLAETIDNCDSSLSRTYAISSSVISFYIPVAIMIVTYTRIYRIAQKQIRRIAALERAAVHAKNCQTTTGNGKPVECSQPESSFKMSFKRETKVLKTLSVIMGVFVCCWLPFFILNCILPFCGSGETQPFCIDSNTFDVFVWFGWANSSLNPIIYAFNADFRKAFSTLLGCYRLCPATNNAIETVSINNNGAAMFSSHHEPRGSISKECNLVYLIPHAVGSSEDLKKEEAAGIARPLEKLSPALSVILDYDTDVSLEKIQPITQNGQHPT

[16] = target: T4, Adenosine receptor A1 (Homo sapiens) (UniProt P30542); experiment: Inhibition of adenosine A1 receptor at 1 uM
T4 sequence (whole entry): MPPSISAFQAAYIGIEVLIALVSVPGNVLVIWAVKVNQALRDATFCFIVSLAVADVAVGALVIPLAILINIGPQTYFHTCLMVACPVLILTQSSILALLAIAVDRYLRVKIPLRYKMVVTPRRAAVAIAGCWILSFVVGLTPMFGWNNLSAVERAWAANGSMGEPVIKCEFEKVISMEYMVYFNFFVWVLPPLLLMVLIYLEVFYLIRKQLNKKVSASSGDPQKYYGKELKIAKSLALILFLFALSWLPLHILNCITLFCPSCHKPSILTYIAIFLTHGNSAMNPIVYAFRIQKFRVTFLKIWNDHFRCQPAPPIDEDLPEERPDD

[17] = target: Adenosine receptor A2a (Homo sapiens) (UniProt P29274); experiment: Inhibition of adenosine A2A receptor at 1 uM
Sequence of Adenosine receptor A2a (Homo sapiens) (P29274 whole entry): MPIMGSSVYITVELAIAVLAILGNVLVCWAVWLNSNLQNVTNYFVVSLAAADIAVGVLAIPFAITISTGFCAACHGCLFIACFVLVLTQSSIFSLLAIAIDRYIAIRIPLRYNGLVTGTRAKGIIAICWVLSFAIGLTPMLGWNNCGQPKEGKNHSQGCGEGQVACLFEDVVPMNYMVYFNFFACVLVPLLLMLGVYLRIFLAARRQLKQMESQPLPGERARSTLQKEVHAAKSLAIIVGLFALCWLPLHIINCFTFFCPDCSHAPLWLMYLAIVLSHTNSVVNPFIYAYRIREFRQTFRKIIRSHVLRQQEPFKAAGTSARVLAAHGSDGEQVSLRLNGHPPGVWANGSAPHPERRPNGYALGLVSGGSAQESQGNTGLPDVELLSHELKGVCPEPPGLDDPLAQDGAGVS

[18] = Inhibition of calcium channel L type dihydropyridine binding site at 1 uM
[19] = target: Histamine H1 receptor (Homo sapiens) (UniProt P35367); experiment: Inhibition of histamine H1 receptor at 1 uM
Sequence of Histamine H1 receptor (Homo sapiens) (P35367 whole entry): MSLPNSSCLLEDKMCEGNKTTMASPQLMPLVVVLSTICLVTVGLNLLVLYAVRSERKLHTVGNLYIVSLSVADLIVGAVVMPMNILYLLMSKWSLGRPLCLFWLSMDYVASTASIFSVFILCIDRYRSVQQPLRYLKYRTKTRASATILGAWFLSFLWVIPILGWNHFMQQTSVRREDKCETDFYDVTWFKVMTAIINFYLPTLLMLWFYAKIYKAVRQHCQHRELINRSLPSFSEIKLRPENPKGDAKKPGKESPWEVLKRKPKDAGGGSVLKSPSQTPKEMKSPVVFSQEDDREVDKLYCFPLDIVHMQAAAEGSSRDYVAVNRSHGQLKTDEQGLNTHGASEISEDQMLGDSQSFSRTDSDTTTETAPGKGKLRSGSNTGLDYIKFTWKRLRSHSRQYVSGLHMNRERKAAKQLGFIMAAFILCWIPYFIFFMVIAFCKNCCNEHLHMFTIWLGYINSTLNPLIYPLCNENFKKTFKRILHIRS

[20] = Inhibition of sigma 2 receptor at 1 uM
[21] = Inhibition of rolipram binding site at 1 uM
[22] = Inhibition of ATP-sensitive potassium channel at 1 uM
[23] = target: T5, Alpha-1B adrenergic receptor (Homo sapiens) (UniProt P35368); experiment: Inhibition of adrenergic Alpha-1B receptor at 1 uM
T5 sequence (whole entry): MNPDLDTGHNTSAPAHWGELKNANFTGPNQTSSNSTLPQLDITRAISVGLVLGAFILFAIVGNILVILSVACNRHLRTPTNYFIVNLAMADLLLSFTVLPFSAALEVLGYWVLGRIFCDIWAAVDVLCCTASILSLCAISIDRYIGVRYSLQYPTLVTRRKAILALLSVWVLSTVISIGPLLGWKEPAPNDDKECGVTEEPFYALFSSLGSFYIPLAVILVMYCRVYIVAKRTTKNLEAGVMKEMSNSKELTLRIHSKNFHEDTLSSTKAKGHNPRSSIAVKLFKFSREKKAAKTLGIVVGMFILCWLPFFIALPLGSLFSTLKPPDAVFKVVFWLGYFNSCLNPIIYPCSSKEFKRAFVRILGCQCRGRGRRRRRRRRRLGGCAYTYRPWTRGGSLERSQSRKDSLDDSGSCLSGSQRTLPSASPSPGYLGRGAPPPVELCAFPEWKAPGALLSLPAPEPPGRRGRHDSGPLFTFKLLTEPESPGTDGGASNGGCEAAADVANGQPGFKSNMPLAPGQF

[24] = target: Sodium-dependent noradrenaline transporter (Homo sapiens) (UniProt P23975); experiment: Inhibition of norepinephrine transporter at 1 uM
Sequence of Sodium-dependent noradrenaline transporter (Homo sapiens) (P23975 whole entry): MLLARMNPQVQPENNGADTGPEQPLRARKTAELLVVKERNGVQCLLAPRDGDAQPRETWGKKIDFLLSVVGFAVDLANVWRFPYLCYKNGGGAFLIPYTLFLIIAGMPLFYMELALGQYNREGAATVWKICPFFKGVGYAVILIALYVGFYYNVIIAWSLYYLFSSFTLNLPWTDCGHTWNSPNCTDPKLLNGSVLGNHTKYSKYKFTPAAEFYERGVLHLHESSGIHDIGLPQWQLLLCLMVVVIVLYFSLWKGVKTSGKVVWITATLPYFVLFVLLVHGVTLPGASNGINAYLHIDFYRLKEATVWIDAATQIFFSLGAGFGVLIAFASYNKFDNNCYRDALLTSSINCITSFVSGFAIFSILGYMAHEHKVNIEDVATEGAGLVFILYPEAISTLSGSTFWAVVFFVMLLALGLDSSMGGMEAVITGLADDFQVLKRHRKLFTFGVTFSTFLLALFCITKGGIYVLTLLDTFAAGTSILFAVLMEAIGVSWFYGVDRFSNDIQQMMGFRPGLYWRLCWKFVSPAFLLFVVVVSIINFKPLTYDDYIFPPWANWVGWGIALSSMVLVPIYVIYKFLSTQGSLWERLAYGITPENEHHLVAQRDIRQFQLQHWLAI

[25] = Inhibition of phencyclidine receptor at 1 uM
[26] = target: Sigma non-opioid intracellular receptor 1 (Homo sapiens) (UniProt Q99720); experiment: Inhibition of sigma 1 receptor at 1 uM
[27] = Inhibition of sodium channel site 2 at 1 uM
[28] = target: D(2) dopamine receptor (Homo sapiens) (UniProt P14416); experiment: Inhibition of dopamine D2S receptor at 1 uM
Sequence of D(2) dopamine receptor (Homo sapiens) (P14416 whole entry): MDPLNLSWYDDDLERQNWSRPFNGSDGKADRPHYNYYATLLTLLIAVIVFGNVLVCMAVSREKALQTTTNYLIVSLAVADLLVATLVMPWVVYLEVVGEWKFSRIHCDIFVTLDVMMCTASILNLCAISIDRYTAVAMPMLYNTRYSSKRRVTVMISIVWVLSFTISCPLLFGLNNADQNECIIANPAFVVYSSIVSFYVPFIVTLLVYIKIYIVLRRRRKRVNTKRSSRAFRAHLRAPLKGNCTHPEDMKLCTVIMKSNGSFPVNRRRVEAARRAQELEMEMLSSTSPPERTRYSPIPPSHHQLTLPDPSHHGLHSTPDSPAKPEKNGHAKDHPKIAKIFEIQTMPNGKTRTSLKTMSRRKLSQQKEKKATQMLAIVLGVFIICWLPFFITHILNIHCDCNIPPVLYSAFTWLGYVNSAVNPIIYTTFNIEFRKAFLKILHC

[29] = target: Beta-1 adrenergic receptor (Homo sapiens) (UniProt P08588); experiment: Inhibition of adrenergic beta-1 receptor at 1 uM
Sequence of Beta-1 adrenergic receptor (Homo sapiens) (P08588 whole entry, looked up): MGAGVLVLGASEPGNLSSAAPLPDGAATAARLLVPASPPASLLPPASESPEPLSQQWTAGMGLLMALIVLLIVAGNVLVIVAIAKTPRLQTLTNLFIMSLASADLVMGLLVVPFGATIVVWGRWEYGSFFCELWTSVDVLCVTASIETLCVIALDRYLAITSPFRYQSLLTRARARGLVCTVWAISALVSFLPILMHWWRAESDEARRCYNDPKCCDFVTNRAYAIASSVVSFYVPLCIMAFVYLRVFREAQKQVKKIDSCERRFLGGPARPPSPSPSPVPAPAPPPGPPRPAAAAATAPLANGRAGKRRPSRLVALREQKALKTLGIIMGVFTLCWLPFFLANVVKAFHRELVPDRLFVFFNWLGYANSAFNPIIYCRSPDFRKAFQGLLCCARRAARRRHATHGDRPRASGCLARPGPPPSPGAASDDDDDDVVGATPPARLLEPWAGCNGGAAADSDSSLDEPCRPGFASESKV

[30] = target: T6, Glucocorticoid receptor (Homo sapiens, UniProt P04150)
T6 sequence (P04150 whole entry): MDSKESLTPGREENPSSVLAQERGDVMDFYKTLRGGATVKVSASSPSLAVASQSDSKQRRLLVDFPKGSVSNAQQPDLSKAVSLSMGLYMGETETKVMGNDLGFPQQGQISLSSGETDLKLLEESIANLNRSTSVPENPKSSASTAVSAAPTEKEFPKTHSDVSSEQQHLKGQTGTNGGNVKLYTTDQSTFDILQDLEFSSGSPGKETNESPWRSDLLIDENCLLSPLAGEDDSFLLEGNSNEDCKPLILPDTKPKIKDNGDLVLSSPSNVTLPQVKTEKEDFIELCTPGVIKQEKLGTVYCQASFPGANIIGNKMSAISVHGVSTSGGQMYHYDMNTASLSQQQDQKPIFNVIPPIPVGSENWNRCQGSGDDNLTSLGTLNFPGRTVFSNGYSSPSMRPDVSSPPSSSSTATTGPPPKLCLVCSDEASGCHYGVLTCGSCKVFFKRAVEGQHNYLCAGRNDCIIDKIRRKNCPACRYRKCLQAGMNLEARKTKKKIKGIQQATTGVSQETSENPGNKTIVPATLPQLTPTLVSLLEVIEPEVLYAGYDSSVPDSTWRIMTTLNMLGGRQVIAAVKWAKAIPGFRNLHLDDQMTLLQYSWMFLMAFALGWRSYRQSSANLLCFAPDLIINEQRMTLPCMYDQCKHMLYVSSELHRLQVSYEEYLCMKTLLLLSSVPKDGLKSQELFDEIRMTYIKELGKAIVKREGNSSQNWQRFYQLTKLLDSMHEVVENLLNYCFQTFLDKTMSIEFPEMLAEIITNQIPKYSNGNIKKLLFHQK
Description: Binding affinity to human glucocorticoid receptor by fluorescence polarization competitive binding assay

SMILES: OC(c1ccc(F)c(Cl)c1)(c1ccc2c(cnn2-c2ccc(F)cc2)c1)C(F)(F)F (single isomer, unassigned; (-))
inhibition [1]: < 50%
inhibition [2]: < 50%
inhibition [3]: < 50%
inhibition [4]: < 50%
inhibition [5]: < 50%
inhibition [6]: < 50%
inhibition [7]: < 50%
inhibition [8]: < 50%
inhibition [9]: < 50%
inhibition [10]: < 50%
inhibition [11]: < 50%
inhibition [12]: < 50%
inhibition [13]: < 50%
inhibition [14]: < 50%
inhibition [15]: < 50%
inhibition [16]: < 50%
inhibition [17]: < 50%
inhibition [18]: < 50%
inhibition [19]: < 50%
inhibition [20]: < 50%
inhibition [21]: < 50%
inhibition [22]: < 50%
inhibition [23]: < 50%
inhibition [24]: < 50%
inhibition [25]: < 50%
inhibition [26]: < 50%
inhibition [27]: < 50%
inhibition [28]: < 50%
inhibition [29]: < 50%

SMILES: Cc1ccccc1C(O)(c1ccc2c(cnn2-c2ccc(F)cc2)c1)C(F)(F)F (stereo not given)
IC50 [30]: 282 nM

SMILES: OC(c1ccc(F)cc1)c1ccc2c(cnn2-c2ccc(F)cc2)c1 (stereo not given)
IC50 [30]: 10000 nM

SMILES: OC(c1ccc2c(cnn2-c2ccc(F)cc2)c1)(c1ccccc1F)C(F)(F)F (stereo not given)
IC50 [30]: 54 nM

SMILES: OC(c1ccc2c(cnn2-c2ccc(F)cc2)c1)(c1cccc(Cl)c1Cl)C(F)(F)F (stereo in doubt; 23) [1-(2,3-DICHLOROPHENYL)-2,2,2-TRIFLUORO-1-(1-(4-FLUOROPHENYL)-1H-INDAZOL-5-YL)ETHANOL (ENANTIOMERIC MIX)]
IC50 [30]: 87 nM

SMILES: CC(O)(c1ccc(F)cc1)c1ccc2c(cnn2-c2ccc(F)cc2)c1 (stereo not given)
IC50 [30]: 2110 nM

SMILES: OC(c1ccc(F)c(Cl)c1)(c1ccc2c(cnn2-c2ccc(F)cc2)c1)C(F)(F)F (stereo in doubt; 18) [1-(3-CHLORO-4-FLUOROPHENYL)-2,2,2-TRIFLUORO-1-(1-(4-FLUOROPHENYL)-1H-INDAZOL-5-YL)ETHANOL (ENANTIOMERIC MIX)]
IC50 [30]: 117 nM

SMILES: N#Cc1cccc(C(O)(c2ccc3c(cnn3-c3ccc(F)cc3)c2)C(F)(F)F)c1 (stereo not given)
IC50 [30]: 99 nM

Now from value to compound:

IC50 [30]: 30 nM
SMILES: N#Cc1cc(C(O)(c2ccc3c(cnn3-c3ccc(F)cc3)c2)C(F)(F)F)ccc1F (stereo not given)

IC50 [30]: 3000 nM
SMILES: OC(c1ccc(F)cc1)(c1ccc2c(cnn2-c2ccc(F)cc2)c1)C(F)(F)F (single isomer, unassigned; (+)) [2,2,2-TRIFLUORO-1-(4-FLUOROPHENYL)-1-(1-(4-FLUOROPHENYL)-1H-INDAZOL-5-YL)ETHANOL (DIASTEREOMERIC MIX)]

IC50 [30]: 35 nM
SMILES: OC(c1ccc2c(cnn2-c2ccc(F)cc2)c1)(c1ccccc1Cl)C(F)(F)F (stereo not given)

IC50 [30]: 86 nM
SMILES: OC(c1ccc(F)cc1)(c1ccc2c(cnn2-c2ccc(F)cc2)c1)C(F)(F)F (single isomer, unassigned; (-)) [2,2,2-TRIFLUORO-1-(4-FLUOROPHENYL)-1-(1-(4-FLUOROPHENYL)-1H-INDAZOL-5-YL)ETHANOL (DIASTEREOMERIC MIX)]

IC50 [30]: 52 nM
SMILES: Cc1cccc(C(O)(c2ccc3c(cnn3-c3ccc(F)cc3)c2)C(F)(F)F)c1 (stereo not given)

IC50 [30]: 178 nM
SMILES: OC(c1ccc(Cl)c(Cl)c1)(c1ccc2c(cnn2-c2ccc(F)cc2)c1)C(F)(F)F (stereo not given)

IC50 [30]: 2090 nM
SMILES: Cc1ccc(C(O)(c2ccc3c(cnn3-c3ccc(F)cc3)c2)C(F)(F)F)cc1 (stereo not given)

IC50 [30]: 161 nM
SMILES: OC(c1ccc(F)cc1)(c1ccc2c(cnn2-c2ccc(F)cc2)c1)C(F)(F)F (stereo in doubt; 12) [2,2,2-TRIFLUORO-1-(4-FLUOROPHENYL)-1-(1-(4-FLUOROPHENYL)-1H-INDAZOL-5-YL)ETHANOL (DIASTEREOMERIC MIX)]

IC50 [30]: 72 nM
SMILES: OC(c1cccc(Cl)c1)(c1ccc2c(cnn2-c2ccc(F)cc2)c1)C(F)(F)F (stereo not given)
